Measurements: patent US20210379067A1 (iOmx Therapeutics AG, priority 2018, published 2021)

Key:
M579-A2-luc cells = assay: Sensitisation of tumour cells to in-vitro TNF attack (luciferase-based viability readout); type: cell-based, human; settings: TNF 10 ng/mL; compound between about 10 and 100 nM; FIG. 7
Procedure: PANC1-luc is an HLA-A2.1+ luciferase-expressing pancreatic adenocarcinoma (PDAC) tumour cell line, and M579-A2-luc is an HLA-A2.1+ luciferase-expressing melanoma tumour cell line.
After lysis, luciferase assay buffer is added and immediately the luciferase intensity was measured by using the TECAN-Spark microplate reader.

SRC = biological target: T1, SRC (Homo sapiens, UniProt P12931); assay: 33PanQinase radiometric protein kinase assay (IC50); type: biochemical
T1 construct: GST; HIS; purchased ProQinase (inferred from the trademark)
T1 sequence (P12931 whole entry): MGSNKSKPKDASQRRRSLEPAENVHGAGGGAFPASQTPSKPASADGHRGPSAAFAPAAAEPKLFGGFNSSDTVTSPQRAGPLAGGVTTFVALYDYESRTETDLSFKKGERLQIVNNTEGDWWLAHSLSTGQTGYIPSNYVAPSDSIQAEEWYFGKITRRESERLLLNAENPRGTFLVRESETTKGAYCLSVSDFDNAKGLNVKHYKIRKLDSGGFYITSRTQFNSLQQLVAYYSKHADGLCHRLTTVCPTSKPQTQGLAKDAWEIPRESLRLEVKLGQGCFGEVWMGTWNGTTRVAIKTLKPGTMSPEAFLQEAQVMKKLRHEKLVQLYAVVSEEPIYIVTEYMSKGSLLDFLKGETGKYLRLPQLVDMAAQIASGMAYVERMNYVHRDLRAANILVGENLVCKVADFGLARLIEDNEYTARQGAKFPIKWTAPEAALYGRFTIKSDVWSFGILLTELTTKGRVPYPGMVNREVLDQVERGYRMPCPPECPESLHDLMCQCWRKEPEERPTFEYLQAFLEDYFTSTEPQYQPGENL
Procedure: (§1) Incorporation of 33Pi was determined with a microplate scintillation counter (Microbeta, Wallac).

SIK2 = biological target: T2, SIK2 (Homo sapiens, UniProt Q9H0K1); assay: as above; type: biochemical
T2 construct: purchased ProQinase
T2 sequence (Q9H0K1 whole entry): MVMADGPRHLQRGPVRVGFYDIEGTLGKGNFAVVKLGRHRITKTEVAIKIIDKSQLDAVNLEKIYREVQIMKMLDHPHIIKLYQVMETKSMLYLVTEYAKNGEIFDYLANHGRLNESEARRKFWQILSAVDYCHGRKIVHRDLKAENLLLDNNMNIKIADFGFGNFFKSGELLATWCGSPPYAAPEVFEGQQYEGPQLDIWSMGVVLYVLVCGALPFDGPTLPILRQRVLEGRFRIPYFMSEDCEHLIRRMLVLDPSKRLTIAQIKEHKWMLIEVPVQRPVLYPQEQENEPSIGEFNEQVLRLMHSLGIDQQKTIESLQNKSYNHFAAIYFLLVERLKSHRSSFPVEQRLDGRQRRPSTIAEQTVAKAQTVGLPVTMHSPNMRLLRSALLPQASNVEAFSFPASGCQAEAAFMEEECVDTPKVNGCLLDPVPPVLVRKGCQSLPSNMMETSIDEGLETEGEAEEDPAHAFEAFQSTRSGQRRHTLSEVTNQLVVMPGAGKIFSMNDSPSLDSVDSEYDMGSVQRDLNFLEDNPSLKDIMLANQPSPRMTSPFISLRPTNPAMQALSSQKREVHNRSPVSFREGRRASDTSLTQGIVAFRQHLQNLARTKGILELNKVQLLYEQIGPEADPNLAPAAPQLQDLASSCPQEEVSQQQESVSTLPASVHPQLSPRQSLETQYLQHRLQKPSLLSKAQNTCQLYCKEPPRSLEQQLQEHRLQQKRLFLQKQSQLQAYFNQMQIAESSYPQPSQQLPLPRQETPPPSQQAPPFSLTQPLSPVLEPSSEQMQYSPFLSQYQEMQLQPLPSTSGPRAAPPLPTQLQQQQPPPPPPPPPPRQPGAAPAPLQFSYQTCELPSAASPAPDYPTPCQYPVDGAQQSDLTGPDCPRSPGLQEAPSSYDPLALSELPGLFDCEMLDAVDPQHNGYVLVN
Procedure: as §1

ABL1 wt = biological target: T3, ABL1 wt (Homo sapiens, UniProt P00519); assay: as above; type: biochemical
T3 construct: the ABL1 wild-type protein (amino acids P118-S525); purchased ProQinase
T3 sequence (P00519 118-535 limits assumed): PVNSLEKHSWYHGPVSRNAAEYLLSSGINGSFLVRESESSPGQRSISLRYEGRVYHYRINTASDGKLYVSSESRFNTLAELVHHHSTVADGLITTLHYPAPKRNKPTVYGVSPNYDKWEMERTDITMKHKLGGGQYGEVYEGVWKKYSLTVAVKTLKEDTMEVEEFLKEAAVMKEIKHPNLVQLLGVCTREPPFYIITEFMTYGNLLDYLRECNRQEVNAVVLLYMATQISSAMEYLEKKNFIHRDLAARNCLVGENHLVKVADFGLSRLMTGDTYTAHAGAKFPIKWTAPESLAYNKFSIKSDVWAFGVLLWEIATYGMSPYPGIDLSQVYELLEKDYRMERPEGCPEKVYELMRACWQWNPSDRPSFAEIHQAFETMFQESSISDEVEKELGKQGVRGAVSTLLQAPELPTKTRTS
Procedure: as §1

SIK3 = biological target: T4, SIK3 (Homo sapiens, UniProt Q9Y2K2); assay: as above; type: biochemical
T4 construct: purchased ProQinase
T4 sequence (Q9Y2K2 whole entry): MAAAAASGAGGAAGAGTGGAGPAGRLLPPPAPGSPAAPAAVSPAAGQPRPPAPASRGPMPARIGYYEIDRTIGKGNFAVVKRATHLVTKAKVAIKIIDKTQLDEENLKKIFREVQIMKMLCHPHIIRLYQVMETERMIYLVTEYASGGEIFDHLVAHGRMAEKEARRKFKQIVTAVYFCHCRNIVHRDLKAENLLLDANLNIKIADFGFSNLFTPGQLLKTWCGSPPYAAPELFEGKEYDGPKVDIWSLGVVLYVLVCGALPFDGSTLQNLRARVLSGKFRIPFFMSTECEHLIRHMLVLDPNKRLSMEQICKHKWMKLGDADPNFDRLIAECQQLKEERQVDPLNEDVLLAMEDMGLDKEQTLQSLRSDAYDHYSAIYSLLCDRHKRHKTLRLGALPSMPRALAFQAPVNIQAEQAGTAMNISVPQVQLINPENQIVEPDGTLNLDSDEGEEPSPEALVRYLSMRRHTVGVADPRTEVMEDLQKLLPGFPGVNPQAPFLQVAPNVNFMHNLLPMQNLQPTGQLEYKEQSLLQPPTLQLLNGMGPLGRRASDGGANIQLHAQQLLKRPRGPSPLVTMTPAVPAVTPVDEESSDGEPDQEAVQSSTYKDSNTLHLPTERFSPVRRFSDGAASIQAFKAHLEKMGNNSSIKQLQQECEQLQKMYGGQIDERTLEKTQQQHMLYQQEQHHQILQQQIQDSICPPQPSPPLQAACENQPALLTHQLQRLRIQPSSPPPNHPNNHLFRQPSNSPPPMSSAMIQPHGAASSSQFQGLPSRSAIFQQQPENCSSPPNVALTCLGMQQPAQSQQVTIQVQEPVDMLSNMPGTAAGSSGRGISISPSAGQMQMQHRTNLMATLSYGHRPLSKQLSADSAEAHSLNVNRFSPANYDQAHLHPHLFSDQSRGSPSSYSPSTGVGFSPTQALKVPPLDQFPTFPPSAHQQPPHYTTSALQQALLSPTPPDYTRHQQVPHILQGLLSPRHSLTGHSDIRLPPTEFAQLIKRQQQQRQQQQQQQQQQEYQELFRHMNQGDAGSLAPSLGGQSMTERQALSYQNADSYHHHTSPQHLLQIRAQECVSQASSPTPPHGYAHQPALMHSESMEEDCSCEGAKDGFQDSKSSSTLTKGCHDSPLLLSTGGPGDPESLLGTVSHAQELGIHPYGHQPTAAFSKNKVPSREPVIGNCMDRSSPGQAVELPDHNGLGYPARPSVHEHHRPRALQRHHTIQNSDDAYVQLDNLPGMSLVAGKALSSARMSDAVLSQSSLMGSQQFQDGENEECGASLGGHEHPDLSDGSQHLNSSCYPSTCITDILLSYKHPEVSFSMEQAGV
Procedure: as §1

SIK1 = biological target: T5, SIK1 (Homo sapiens, UniProt P57059); assay: as above; type: biochemical
T5 construct: purchased ProQinase
T5 sequence (P57059 whole entry): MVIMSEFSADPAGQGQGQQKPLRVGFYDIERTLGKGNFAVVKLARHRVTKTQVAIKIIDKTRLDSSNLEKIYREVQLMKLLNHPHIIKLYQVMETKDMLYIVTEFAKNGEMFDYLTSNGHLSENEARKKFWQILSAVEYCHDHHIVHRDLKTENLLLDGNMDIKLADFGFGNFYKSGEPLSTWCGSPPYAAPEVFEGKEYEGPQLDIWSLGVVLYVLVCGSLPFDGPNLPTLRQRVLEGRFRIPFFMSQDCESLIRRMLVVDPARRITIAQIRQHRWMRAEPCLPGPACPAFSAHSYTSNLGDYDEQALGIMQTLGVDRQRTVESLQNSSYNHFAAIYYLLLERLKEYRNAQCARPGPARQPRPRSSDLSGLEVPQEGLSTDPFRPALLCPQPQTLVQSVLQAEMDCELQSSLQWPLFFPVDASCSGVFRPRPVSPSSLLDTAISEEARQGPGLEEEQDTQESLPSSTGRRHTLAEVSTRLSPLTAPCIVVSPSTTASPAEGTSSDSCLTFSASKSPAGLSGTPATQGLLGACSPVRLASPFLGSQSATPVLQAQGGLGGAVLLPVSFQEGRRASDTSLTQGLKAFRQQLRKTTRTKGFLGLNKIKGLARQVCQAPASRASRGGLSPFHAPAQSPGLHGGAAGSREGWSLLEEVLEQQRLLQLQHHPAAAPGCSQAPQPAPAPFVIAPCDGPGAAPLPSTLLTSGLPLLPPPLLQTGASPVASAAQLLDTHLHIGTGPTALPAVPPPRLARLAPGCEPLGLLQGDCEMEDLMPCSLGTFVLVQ
Procedure: as §1

[1] = Human liver microsomal stability; type: in vitro ADME
[2] = Mouse liver microsomal stability; type: in vitro ADME; settings: liver microsomes, read-out: Intrinsic clearance
in vitro = settings: dog, MDCK
PANC-1-luc cells = assay: Sensitisation of tumour cells to in-vitro TNF attack (luciferase-based killing assay); type: cell-based, human; settings: compound plus rHuTNF (10 ng/mL) vs compound alone; FIG. 6
Procedure: R&D Systems), and also the speed of onset of this effect. PANC1-luc is an HLA-A2.1+ luciferase-expressing pancreatic adenocarcinoma (PDAC) tumour cell line, and […]-A2-luc is an HLA-A2.1+ luciferase-expressing melanoma tumour cell line. […] After lysis, luciferase assay buffer is added and immediately the luciferase intensity was measured by using the TECAN-Spark microplate reader. The PANC1-luc cell line is constructed as follows: PANC-1 cells acquired from the American Type Cell Culture (ATCC). Tumour cells are transfected with a pEGFP-Luc plasmid, using TransIT-LT1 (Mirus) as transfection reagent. Transfected cells are selected with 1 mg/mL of G418/Geneticin, and 14 days after selection EGFP+ cells are sorted using, eg a BD […] II cell sorter.

MDR1 = assay: in vitro; settings: dog, MDCK-MDR1
JAK1 aa583-1154 wt = biological target: T6, JAK1 aa583-1154 wt (Homo sapiens, UniProt P23458); assay: Kinase Profiler single-point (1 uM) inhibition; type: biochemical
T6 construct: JAK1 aa583-1154 wt; purchased ProQinase
T6 sequence (P23458 583-1154): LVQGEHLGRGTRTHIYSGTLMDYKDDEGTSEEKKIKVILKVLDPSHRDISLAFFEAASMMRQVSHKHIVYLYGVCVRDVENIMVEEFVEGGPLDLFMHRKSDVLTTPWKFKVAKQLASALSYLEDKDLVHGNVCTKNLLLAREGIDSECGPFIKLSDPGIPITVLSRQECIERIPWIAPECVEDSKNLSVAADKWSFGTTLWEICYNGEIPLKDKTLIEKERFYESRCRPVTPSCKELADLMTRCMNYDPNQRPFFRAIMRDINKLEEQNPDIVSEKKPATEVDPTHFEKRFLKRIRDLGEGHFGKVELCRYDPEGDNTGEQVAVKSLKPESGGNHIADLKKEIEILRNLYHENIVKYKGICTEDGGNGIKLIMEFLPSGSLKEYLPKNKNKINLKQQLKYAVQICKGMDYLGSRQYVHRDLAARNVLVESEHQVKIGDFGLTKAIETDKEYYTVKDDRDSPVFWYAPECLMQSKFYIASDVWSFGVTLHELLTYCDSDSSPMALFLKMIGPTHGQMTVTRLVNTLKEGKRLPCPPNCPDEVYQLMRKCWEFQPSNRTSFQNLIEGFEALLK

K562 CML cells = settings: similar study, cited from earlier work
KU812 tumours = settings: large KU812 tumours; 50 mg/kg/day for 5 days; cited from earlier work
RAF1 = biological target: T7, RAF1 (Homo sapiens, UniProt P04049, Y340D/Y341D); assay: Kinase Profiler single-point (1 uM) inhibition; type: biochemical; settings: 1 uM compound, read-out: residual activity class (FIG. 3)
T7 construct: purchased ProQinase, Freiburg, Germany (Kinase Profiler service)
T7 sequence (P04049 307-648 Y340D/Y341D limits assumed): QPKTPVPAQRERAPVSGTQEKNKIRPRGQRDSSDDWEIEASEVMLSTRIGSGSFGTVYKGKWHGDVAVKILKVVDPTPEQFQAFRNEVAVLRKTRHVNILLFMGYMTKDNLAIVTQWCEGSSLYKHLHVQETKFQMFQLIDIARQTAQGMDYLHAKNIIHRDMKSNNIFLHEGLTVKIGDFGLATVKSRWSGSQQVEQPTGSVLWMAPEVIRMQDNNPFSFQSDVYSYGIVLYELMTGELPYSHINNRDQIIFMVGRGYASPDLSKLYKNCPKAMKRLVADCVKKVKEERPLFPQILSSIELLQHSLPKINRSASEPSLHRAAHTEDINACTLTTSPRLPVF

K562 human CML tumours = settings: high doses; cited from earlier work

SMILES: COc1c(F)cccc1NC(=O)c1cnc(Nc2cc(N3CCN(CCO)CC3)nc(C)n2)s1 [Compound B4, N-(3-fluoro-2-methoxyphenyl)-2-((6-(4-(2-hydroxyethyl)piperazin-1-yl)-2-methylpyrimidin-4-yl)amino)thiazole-5-carboxamide]
- tumour cell cytotoxicity with TNF compared to inhibitor alone (M579-A2-luc cells): fails to exhibit cytotoxicity
- inhibitory activity (SRC): potent inhibitor of ABL1 & SRC
- inhibitory activity (SIK2): strong inhibitor or SIK1 and SIK2
- inhibitory activity (ABL1 wt): potent inhibitor of ABL1 & SRC
- inhibitory activity (SIK3): weak inhibitor of SIK3
- inhibitory activity (SIK1): strong inhibitor or SIK1 and SIK2

SMILES: Cc1nc(Nc2ncc(C(=O)Nc3c(Cl)ccnc3C)s2)cc(N2CCN(CCO)CC2)n1 [Compound B3, N-(4-chloro-2-methylpyridin-3-yl)-2-((6-(4-(2-hydroxyethyl)piperazin-1-yl)-2-methylpyrimidin-4-yl)amino)thiazole-5-carboxamide]
- drug remaining at 40 min, times more than dasatinib ([1]; hLM assay): 10 times
- half-life, times longer than dasatinib ([1]; hLM assay): ~6 times
- microsomal CLint ([1]; liver microsomes, human liver microsomal stability, read-out: Intrinsic clearance): 24 µL/min/mg
- microsomal CLint [2]: 22 µL/min/mg
- Papp A→B (in vitro): 6.8 ×10⁻⁶ cm/s
- Papp B→A (in vitro): 20 ×10⁻⁶ cm/s
- sensitisation of tumour cells to TNF attack (PANC-1-luc cells): sensitisation of tumour-cells to in-vitro TNF-attack
- Papp A→B (MDR1): < 0.8 ×10⁻⁶ cm/s
- Papp B→A (MDR1): 20 ×10⁻⁶ cm/s

SMILES: Cc1nc(Nc2ncc(C(=O)Nc3c(C)cccc3Cl)s2)cc(N2CCN(CCO)CC2)n1 [Compound A8, N-(2-chloro-6-methylphenyl)-2-((6-(4-(2-hydroxyethyl)piperazin-1-yl)-2-methylpyrimidin-4-yl)amino)thiazole-5-carboxamide]
- Residual activity (%) at 1 uM (JAK1 aa583-1154 wt): 41%
- survival (K562 CML cells; 10 and 30 mg/kg/day): increased survival
- tumour response (KU812 tumours): curative
- remaining activity at 1 µM (RAF1): < 25%
- sensitisation of tumour cells to TNF attack (PANC-1-luc cells): sensitisation of tumour-cells to in-vitro TNF-attack

SMILES: Cc1nc(Nc2ncc(C(=O)Nc3c(Cl)cccc3Br)s2)cc(N2CCN(CCO)CC2)n1 [Compound B1, N-(2-bromo-6-chlorophenyl)-2-((6-(4-(2-hydroxyethyl)piperazin-1-yl)-2-methylpyrimidin-4-yl)amino)thiazole-5-carboxamide]
- tumour cell cytotoxicity with TNF compared to inhibitor alone (M579-A2-luc cells): increased cytotoxicity
- inhibitory activity (SIK2): pan-SIK and ABL1 & SRC inhibitor
- inhibitory activity (SIK3): pan-SIK and ABL1 & SRC inhibitor
- inhibitory activity (SIK1): pan-SIK and ABL1 & SRC inhibitor

SMILES: Cc1ccc(NC(=O)c2ccc(CN3CCN(C)CC3)cc2)cc1Nc1nccc(-c2cccnc2)n1 [imatinib]
- intracranial tumour growth (K562 CML cells; 200 mg/kg/day): failed to inhibit intracranial tumour growth
- tumour response (K562 human CML tumours): failed to produce a comparative response

SMILES: CCOc1cccc(Cl)c1NC(=O)c1cnc(Nc2cc(N3CCN(CCO)CC3)nc(C)n2)s1 [Compound B8, N-(2-Chloro-6-ethoxyphenyl)-2-((6-(4-(2-hydroxyethyl)piperazin-1-yl)-2-methylpyrimidin-4-yl)amino)thiazole-5-carboxamide]
- tumour cell cytotoxicity with TNF compared to inhibitor alone (M579-A2-luc cells): fails to exhibit cytotoxicity
- inhibitory activity (SIK2): low inhibitory activity against SIK family members
- inhibitory activity (SIK3): low inhibitory activity against SIK family members
- inhibitory activity (SIK1): low inhibitory activity against SIK family members
